Source: ChEMBL document CHEMBL1132813, “Design, synthesis and cytotoxic activities of naphthyl analogues of combretastatin A-4” (Bioorg Med Chem Lett, 2000)

Legend:
Assay type in all cases: functional, cell-based
[1] = tested on: SK-MEL-28; test: The compound was evaluated for its cytotoxic potency against MEL-28 cell line; settings: Homo sapiens
[2] = tested on: P388; test: The compound was evaluated for its cytotoxic potency against P388 cell line; settings: Mus musculus
[3] = tested on: HT-29; test: The compound was evaluated for its cytotoxic potency against HT-29 cell line; settings: Homo sapiens
[4] = tested on: A549; test: The compound was evaluated for its cytotoxic potency against A-549 cell line; settings: Homo sapiens

Measured: IC50

COc1cc(/C=C/c2ccc3ccccc3c2)cc(OC)c1OC
398 nM: all assays above

COc1cc(CCc2ccc3ccccc3c2)cc(OC)c1OC
316 nM: all assays above

COc1ccc2[nH]c(-c3ccc4ccccc4c3)c(-c3cc(OC)c(OC)c(OC)c3)c2c1
1260 nM: all assays above

COc1ccc(/C=C\c2ccc3ccccc3c2)cc1O
39.8 nM: all assays above

C(=C/c1ccc2ccccc2c1)/c1ccc2ccccc2c1
3980 nM: all assays above

COc1ccc(CCc2ccc3ccccc3c2)cc1O
10000 nM: [3]
5010 nM: all other assays above

COc1cc(/C=C\c2ccc3ccccc3c2)cc(OC)c1OC [NAPHTHYLCOMBRETASTATIN]
15.8 nM: all assays above

COc1ccc(/C=C/c2ccc3ccccc3c2)cc1O
3980 nM: all assays above

COc1ccc(/C=C\c2cc(OC)c(OC)c(OC)c2)cc1O [COMBRETASTATIN A4]
31.6 nM: [3]
3.16 nM: all other assays above
